Experimental data reported in patent US8445676B2, “Pyrrolotriazine kinase inhibitors” (Bristol-Myers Squibb Company, priority 2008, dated 2013).
pIC50: −log10 of the molar value.

Biological target: JAK2 (Homo sapiens, UniProt O60674)
Assay: JAK2 Tyrosine Kinase Assay
Assay type: biochemical
Conditions: list of named compounds; read-out: IC50 in the JAK2 assay
Method: JAK2 Tyrosine Kinase Assay
The assays were performed in V-bottom 384-well plates. […] The reaction was initiated by the combination of JAK2 with substrates and test compounds. The reaction was incubated at room temperature for 60 min. and terminated by adding 45 μl of 35 mM EDTA to each sample. The reaction mixture was analyzed on the Caliper LabChip 3000 by electrophoretic separation of the fluorescent substrate and phosphorylated product. […] Compounds were dissolved at 10 mM in dimethylsulfoxide (DMSO) and evaluated at eleven concentrations, each in duplicate. IC50 values were derived by non-linear regression analysis

JAK2, sequence (O60674 whole entry): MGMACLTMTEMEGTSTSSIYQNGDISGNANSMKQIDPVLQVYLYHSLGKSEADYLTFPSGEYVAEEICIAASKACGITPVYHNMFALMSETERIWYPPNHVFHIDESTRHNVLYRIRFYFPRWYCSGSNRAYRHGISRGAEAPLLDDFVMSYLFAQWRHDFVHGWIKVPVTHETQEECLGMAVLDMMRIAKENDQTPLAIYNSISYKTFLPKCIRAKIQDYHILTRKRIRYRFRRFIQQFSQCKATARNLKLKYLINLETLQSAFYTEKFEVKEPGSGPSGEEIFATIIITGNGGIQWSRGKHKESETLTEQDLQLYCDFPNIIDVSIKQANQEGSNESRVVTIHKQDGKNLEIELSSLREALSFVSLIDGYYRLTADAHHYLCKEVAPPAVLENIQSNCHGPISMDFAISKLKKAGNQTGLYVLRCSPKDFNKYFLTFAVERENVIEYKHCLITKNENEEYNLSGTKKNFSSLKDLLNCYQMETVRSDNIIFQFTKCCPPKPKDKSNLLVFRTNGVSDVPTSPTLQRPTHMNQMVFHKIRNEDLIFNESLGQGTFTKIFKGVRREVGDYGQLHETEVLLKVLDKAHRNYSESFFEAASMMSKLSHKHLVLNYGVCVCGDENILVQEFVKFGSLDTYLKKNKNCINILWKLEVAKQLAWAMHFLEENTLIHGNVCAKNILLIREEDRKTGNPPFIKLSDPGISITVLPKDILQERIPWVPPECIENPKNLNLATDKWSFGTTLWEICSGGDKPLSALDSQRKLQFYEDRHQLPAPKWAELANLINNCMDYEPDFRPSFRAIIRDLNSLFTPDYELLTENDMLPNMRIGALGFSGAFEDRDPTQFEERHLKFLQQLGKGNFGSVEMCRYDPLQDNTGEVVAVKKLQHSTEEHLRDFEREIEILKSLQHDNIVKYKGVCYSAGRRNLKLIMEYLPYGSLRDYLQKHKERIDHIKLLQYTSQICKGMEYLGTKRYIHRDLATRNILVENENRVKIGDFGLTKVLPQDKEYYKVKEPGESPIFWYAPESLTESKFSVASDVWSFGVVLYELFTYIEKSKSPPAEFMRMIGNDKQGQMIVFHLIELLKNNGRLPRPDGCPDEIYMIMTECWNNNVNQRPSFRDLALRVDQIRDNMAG

Structure (SMILES) | pIC50
Cc1cc(Nc2nc(N3CCN(C(=O)C(C)c4ccc(Cl)cc4)CC3)nn3cccc23)n[nH]1 (stereo not shown) [2-(4-(2-(4-chlorophenyl)propanoyl)-1-piperazinyl)-N-(5-methyl-1H-pyrazol-3-yl)pyrrolo[2,1-f][1,2,4]triazin-4-amine] | ≥ 8.30
Cc1cc(Nc2nc(N3CCN(C(=O)c4ccc(Cl)cc4Cl)CC3)nn3cccc23)n[nH]1 [2-(4-(2,4-dichlorobenzoyl)-1-piperazinyl)-N-(5-methyl-1H-pyrazol-3-yl)pyrrolo[2,1-f][1,2,4]triazin-4-amine] | ≥ 8.30
Cc1cc(Nc2nc(N3CCN(C(=O)c4ccc(F)cc4)CC3)nn3cccc23)n[nH]1 [2-(4-(4-fluorobenzoyl)-1-piperazinyl)-N-(5-methyl-1H-pyrazol-3-yl)pyrrolo[2,1-f][1,2,4]triazin-4-amine] | ≥ 8.30
COc1ccc(C(=O)N2CCN(c3nc(Nc4cc(C)[nH]n4)c4cccn4n3)CC2)cc1 [2-(4-(4-methoxybenzoyl)-1-piperazinyl)-N-(5-methyl-1H-pyrazol-3-yl)pyrrolo[2,1-f][1,2,4]triazin-4-amine] | ≥ 8.30
Cc1cc(Nc2nc(N3CCN(C(=O)Cc4c(F)cccc4F)CC3)nn3cccc23)n[nH]1 [2-(4-((2,6-difluorophenyl)acetyl)-1-piperazinyl)-N-(5-methyl-1H-pyrazol-3-yl)pyrrolo[2,1-f][1,2,4]triazin-4-amine] | ≥ 8.30
Cc1cc(Nc2nc(N3CCN(C(=O)Cc4c(Cl)cccc4Cl)CC3)nn3cccc23)n[nH]1 [2-(4-((2,6-dichlorophenyl)acetyl)-1-piperazinyl)-N-(5-methyl-1H-pyrazol-3-yl)pyrrolo[2,1-f][1,2,4]triazin-4-amine] | ≥ 8.30
Cc1cc(Nc2nc(N3CCN(C(=O)c4cc(F)c(F)cc4Cl)CC3)nn3cccc23)n[nH]1 [2-(4-(2-chloro-4,5-difluorobenzoyl)-1-piperazinyl)-N-(5-methyl-1H-pyrazol-3-yl)pyrrolo[2,1-f][1,2,4]triazin-4-amine] | ≥ 8.30
Cc1cc(Nc2nc(N3CCN(C(=O)c4ccccc4F)CC3)nn3cccc23)n[nH]1 [2-(4-(2-fluorobenzoyl)-1-piperazinyl)-N-(5-methyl-1H-pyrazol-3-yl)pyrrolo[2,1-f][1,2,4]triazin-4-amine] | ≥ 8.30
COc1ccc(CC(=O)N2CCN(c3nc(Nc4cc(C)[nH]n4)c4cccn4n3)CC2)cc1 [2-(4-((4-methoxyphenyl)acetyl)-1-piperazinyl)-N-(5-methyl-1H-pyrazol-3-yl)pyrrolo[2,1-f][1,2,4]triazin-4-amine] | ≥ 8.30
Cc1cc(Nc2nc(N3CCN(C(=O)Cc4ccccc4C#N)CC3)nn3cccc23)n[nH]1 [2-(2-(4-(4-((5-methyl-1H-pyrazol-3-yl)amino)pyrrolo[2,1-f][1,2,4]triazin-2-yl)-1-piperazinyl)-2-oxoethyl)benzonitrile] | ≥ 8.30
Cc1cc(Nc2nc(N3CCN(C(=O)c4c(F)cccc4C(F)(F)F)CC3)nn3cccc23)n[nH]1 [2-(4-(2-fluoro-6-(trifluoromethyl)benzoyl)-1-piperazinyl)-N-(5-methyl-1H-pyrazol-3-yl)pyrrolo[2,1-f][1,2,4]triazin-4-amine] | ≥ 8.30
Cc1cc(Nc2nc(N3CCN(C(=O)C(O)c4ccc(Cl)cc4)CC3)nn3cccc23)n[nH]1 (stereo not shown) [1-(4-chlorophenyl)-2-(4-(4-((5-methyl-1H-pyrazol-3-yl)amino)pyrrolo[2,1-f][1,2,4]triazin-2-yl)-1-piperazinyl)-2-oxoethanol] | ≥ 8.30
Cc1cccc(C(=O)N2CCN(c3nc(Nc4cc(C)[nH]n4)c4cccn4n3)CC2)c1 [2-(4-(3-methylbenzoyl)-1-piperazinyl)-N-(5-methyl-1H-pyrazol-3-yl)pyrrolo[2,1-f][1,2,4]triazin-4-amine] | ≥ 8.30
Cc1cc(Nc2nc(N3CCN(C(=O)Cc4cccc(F)c4)CC3)nn3cccc23)n[nH]1 [2-(4-((3-fluorophenyl)acetyl)-1-piperazinyl)-N-(5-methyl-1H-pyrazol-3-yl)pyrrolo[2,1-f][1,2,4]triazin-4-amine] | ≥ 8.30
Cc1cc(Nc2nc(N3CCN(C(=O)c4c(C)cccc4Cl)CC3)nn3cccc23)n[nH]1 [2-(4-(2-chloro-6-methylbenzoyl)-1-piperazinyl)-N-(5-methyl-1H-pyrazol-3-yl)pyrrolo[2,1-f][1,2,4]triazin-4-amine] | ≥ 8.30
CCC(C)(C)C(=O)N1CCN(c2nc(Nc3cc(C)[nH]n3)c3cccn3n2)CC1 [2-(4-(2,2-dimethylbutanoyl)-1-piperazinyl)-N-(5-methyl-1H-pyrazol-3-yl)pyrrolo[2,1-f][1,2,4]triazin-4-amine] | ≥ 8.30
Cc1cc(Nc2nc(N3CCN(C(=O)c4sc5ccccc5c4Cl)CC3)nn3cccc23)n[nH]1 [2-(4-((3-chloro-1-benzothiophene-2-yl)carbonyl)-1-piperazinyl)-N-(5-methyl-1H-pyrazol-3-yl)pyrrolo[2,1-f][1,2,4]triazin-4-amine] | ≥ 8.30
Cc1cc(Nc2nc(N3CCN(C(=O)COCc4ccccc4)CC3)nn3cccc23)n[nH]1 [2-(4-((benzyloxy)acetyl)-1-piperazinyl)-N-(5-methyl-1H-pyrazol-3-yl)pyrrolo[2,1-f][1,2,4]triazin-4-amine] | ≥ 8.30
Cc1cc(Nc2nc(N3CCN(C(=O)c4cccc(F)c4)CC3)nn3cccc23)n[nH]1 [2-(4-(3-fluorobenzoyl)-1-piperazinyl)-N-(5-methyl-1H-pyrazol-3-yl)pyrrolo[2,1-f][1,2,4]triazin-4-amine] | ≥ 8.30
Cc1cc(Nc2nc(N3CCN(C(=O)[C@@H](O)c4ccccc4)CC3)nn3cccc23)n[nH]1 [(1S)-2-(4-(4-((5-methyl-1H-pyrazol-3-yl)amino)pyrrolo[2,1-f][1,2,4]triazin-2-yl)-1-piperazinyl)-2-oxo-1-phenylethanol] | ≥ 8.30

Second part, the molecule after the results:

pIC50 | Structure (SMILES)
≥ 8.30 | Cc1cc(Nc2nc(N3CCN(C(=O)Cc4ccccc4)CC3)nn3cccc23)n[nH]1 [N-(5-methyl-1H-pyrazol-3-yl)-2-(4-(phenylacetyl)-1-piperazinyl)pyrrolo[2,1-f][1,2,4]triazin-4-amine]
≥ 8.30 | Cc1cc(Nc2nc(N3CCN(C(=O)c4ccccc4COc4ccccc4)CC3)nn3cccc23)n[nH]1 [N-(5-methyl-1H-pyrazol-3-yl)-2-(4-(2-(phenoxymethyl)benzoyl)-1-piperazinyl)pyrrolo[2,1-f][1,2,4]triazin-4-amine]
≥ 8.30 | Cc1cc(Nc2nc(N3CCN(C(=O)C4(NC(=O)OC(C)(C)C)CCc5ccccc54)CC3)nn3cccc23)n[nH]1 (stereo not shown) [tert-butyl (1-((4-(4-((5-methyl-1H-pyrazol-3-yl)amino)pyrrolo[2,1-f][1,2,4]triazin-2-yl)-1-piperazinyl)carbonyl)-2,3-dihydro-1H-inden-1-yl)carbamate]
≥ 8.30 | Cc1cc(Nc2nc(N3CCN(C(=O)c4cccc(C(F)(F)F)c4)CC3)nn3cccc23)n[nH]1 [N-(5-methyl-1H-pyrazol-3-yl)-2-(4-(3-(trifluoromethyl)benzoyl)-1-piperazinyl)pyrrolo[2,1-f][1,2,4]triazin-4-amine]
≥ 8.30 | Cc1cc(Nc2nc(N3CCN(C(=O)c4cnco4)CC3)nn3cccc23)n[nH]1 [N-(5-methyl-1H-pyrazol-3-yl)-2-(4-(1,3-oxazol-5-ylcarbonyl)-1-piperazinyl)pyrrolo[2,1-f][1,2,4]triazin-4-amine]
≥ 8.30 | Cc1cc(Nc2nc(N3CCN(C(=O)[C@](C)(O)c4ccc(F)cc4)CC3)nn3cccc23)n[nH]1 [(2R)-2-(4-fluorophenyl)-1-(4-(4-((5-methyl-1H-pyrazol-3-yl)amino)pyrrolo[2,1-f][1,2,4]triazin-2-yl)-1-piperazinyl)-1-oxo-2-propanol]
≥ 8.30 | CO[C@](C(=O)N1CCN(c2nc(Nc3cc(C)[nH]n3)c3cccn3n2)CC1)(c1ccccc1)C(F)(F)F [N-(5-methyl-1H-pyrazol-3-yl)-2-(4-((2S)-3,3,3-trifluoro-2-methoxy-2-phenylpropanoyl)-1-piperazinyl)pyrrolo[2,1-f][1,2,4]triazin-4-amine]
≥ 8.30 | Cc1cc(Nc2nc(N3CCN(C(=O)c4ncco4)CC3)nn3cccc23)n[nH]1 [N-(5-methyl-1H-pyrazol-3-yl)-2-(4-(1,3-oxazol-2-ylcarbonyl)-1-piperazinyl)pyrrolo[2,1-f][1,2,4]triazin-4-amine]
≥ 8.30 | CCC(C(=O)N1CCN(c2nc(Nc3cc(C)[nH]n3)c3cccn3n2)CC1)c1ccccc1 (stereo not shown) [N-(5-methyl-1H-pyrazol-3-yl)-2-(4-(2-phenylbutanoyl)-1-piperazinyl)pyrrolo[2,1-f][1,2,4]triazin-4-amine]
≥ 8.30 | Cc1cc(Nc2nc(N3CCN(C(=O)Cc4ccccc4C(F)(F)F)CC3)nn3cccc23)n[nH]1 [N-(5-methyl-1H-pyrazol-3-yl)-2-(4-((2-(trifluoromethyl)phenyl)acetyl)-1-piperazinyl)pyrrolo[2,1-f][1,2,4]triazin-4-amine]
≥ 8.30 | Cc1cc(Nc2nc(N3CCN(C(=O)c4ccccc4C(F)(F)F)CC3)nn3cccc23)n[nH]1 [N-(5-methyl-1H-pyrazol-3-yl)-2-(4-(2-(trifluoromethyl)benzoyl)-1-piperazinyl)pyrrolo[2,1-f][1,2,4]triazin-4-amine]
≥ 8.30 | Cc1cc(Nc2nc(N3CCN(C(=O)c4ccc(C(F)(F)F)cc4)CC3)nn3cccc23)n[nH]1 [N-(5-methyl-1H-pyrazol-3-yl)-2-(4-(4-(trifluoromethyl)benzoyl)-1-piperazinyl)pyrrolo[2,1-f][1,2,4]triazin-4-amine]
≥ 8.30 | Cc1cc(Nc2nc(N3CCN(C(=O)C4(c5ccccc5)CCCC4)CC3)nn3cccc23)n[nH]1 [N-(5-methyl-1H-pyrazol-3-yl)-2-(4-((1-phenylcyclopentyl)carbonyl)-1-piperazinyl)pyrrolo[2,1-f][1,2,4]triazin-4-amine]
≥ 8.30 | CCCCC(=O)N1CCN(c2nc(Nc3cc(C)[nH]n3)c3cccn3n2)CC1 [N-(5-methyl-1H-pyrazol-3-yl)-2-(4-pentanoyl-1-piperazinyl)pyrrolo[2,1-f][1,2,4]triazin-4-amine]
